# Source: paper PMC12186697, “HypoxyStat, a small-molecule form of hypoxia therapy that increases oxygen-hemoglobin affinity” (Cell, 2025)
# Tests used:
# [1] = test system: Ndufs4 KO mouse; test: Ndufs4 KO mouse model of Leigh syndrome (survival, body weight, temperature, behavior, neuropathology); type: in vivo; conditions: daily HypoxyStat initiated at P50
# [2] = Stability of dosing suspension; type: physicochemical; conditions: suspension in 0.5% HPMC, stored at 4 °C
# Description: Mice were administered HypoxyStat at 600 mg/kg every other day or 400mg/kg daily via oral gavage. For the disease prevention experiments, KO mice that underwent daily dosing were dosed starting ~P30 for 1 week of 200mg/kg daily, followed by 400mg/kg daily to allow for gradual dose escalation. For the reversal study, KO mice were dosed once with 200mg/kg on postnatal day ~P55, followed by 400mg/kg daily. HypoxyStat was formulated as a suspension at 60 mg/mL, 40mg/ml or 80mg/ml depending on dose in 0.5%HPMC and stored at 4 °C. The formulation was determined to be stable for at least 8 weeks. Animal body weight was taken at time of dosing to determine appropriate dosing volume (10 mL/kg for every other day dosing, 5ml/kg for daily dosing). Vehicle treated mice were administered the same volume of 0.5% HPMC.
# [3] = Safety studies in mice at optimized dose; type: in vivo; conditions: optimized dose (400 mg/kg daily)
# Description: Additionally, we used the Reaction Bio InVEST panel to test 25+ potential off-targets that have been identified by a consortium of pharmaceutical companies as high-yield candidates.
# Hematocrit was determined with an iStat VetScan 1 with Zoetis Chem 8+ cartridges. Blood glucose measurements were performed using OneTouch UltraPlus glucometer. Whole blood chemistry measurements were performed on a VetScan HM5.
# [4] = target: T1, hemoglobin (Hb) in human red blood cells (Homo sapiens, UniProt P69905); test: Oxy-hemoglobin dissociation curve (Hemox Analyzer), p50; type: biochemical
# T1 construct: incubated for at least one hour at 37C with whole blood before Hemox analysis; endogenous in cells; host or cells: human red blood cells / whole blood
# Description: One of the most extensively studied compounds for sickle cell anemia is GBT-440 (Voxelotor) (Figure 1B).[25] The extent of left-shifting can be assessed by determining the p50 or the partial pressure of oxygen at which half of the total Hb pool is bound to oxygen. We incubated human red blood cells with GBT-440 and observed a ~75% decrease in p50 (from ~28 to ~7 mmHg), consistent with previously reported values (Figure 1D). Experiments were performed using a HemOx analyzer that monitors oxygen saturation via Hb absorbance across a range of dissolved oxygen tensions. Upon further review of the sickle cell anemia literature, we found another compound, hereafter termed HypoxyStat (Figure 1B), which appeared to have a similar p50 as GBT-440.[26] We confirmed that HypoxyStat induced an ~82% decrease in p50 (Figure 1D).
# Oxy-hemoglobin dissociation analysis was performed by the UCSF RBC laboratory using the TCS Hemox Analyzer (TCS Medical Products Company, Huntington Valley, PA). Initial pO2 is set to 160 mmHg. Hemoglobin is fully oxygenated under these conditions (HbO% =100). Replacement of air with nitrogen lowers pO2 and is measured by Clark electrode along with the change in the absorbance spectrum of hemoglobin. At a pO2 of 0 mmHg, hemoglobin is fully deoxygenated (HbO% =0). The relation between pO2 and HbO% is plotted, and the pO2 at which HbO% = 50% is defined as P50. The typical sigmoid de-oxygenation curve of normal blood with a P50 of 26–28 mmHg is used as a control for incubation conditions and to ensure proper function of the Hemox analyzer. For left-shifter comparison, the compounds were dissolved in HEPES buffered saline and then incubated for at least one hour at 37C with whole blood before Hemox analysis. A control of whole blood incubated with vehicle is also reported.
# [5] = test system: Hb; test: Hb occupancy estimate from blood levels of compound and Hb; type: in vivo; conditions: day 12, C57BL/6 mice
# Description: We conducted a PK/PD study to determine the optimal dosing strategy for HypoxyStat in a chronic setting. First we administered a single 10 mg/kg oral dose of HypoxyStat to adult C57BL/6 mice and monitored its concentration in blood and plasma over a 10-day period (Figure 3A, left). Next, we administered HypoxyStat at doses of 20, 60, 200, and 600 mg/kg via oral gavage three times per week for 12 days. […] Based on blood levels of HypoxyStat and Hb measured on day 12, we estimated Hb occupancy to be 29.3% at 200 mg/kg and 41.4% at 600 mg/kg (Figure S1).[27]
# Figure S1. Hemoglobin occupancy estimates, related to Figure 1
# LC/MS/MS measurement of steady-state whole-blood HypoxyStat concentrations after day 12 administration in C57BL/6 mice (200 or 600 mg/kg PO, […]
# week in 0.5% HPMC), N = 10 per group.
# (A) Oral administration of HypoxyStat every other day (vehicle = 0.5% HPMC).
# (B) LC/MS/MS measurement of steady-state mean whole-blood HypoxyStat concentrations after day 12 administration in C57BL/6 mice.
# (C) Hb concentration after analogous treatment.
# (D) Hb occupancy was calculated by dividing the HypoxyStat concentration in blood by the Hb concentration in blood on day 12.
# T1 sequence (P69905 2-142 limits assumed): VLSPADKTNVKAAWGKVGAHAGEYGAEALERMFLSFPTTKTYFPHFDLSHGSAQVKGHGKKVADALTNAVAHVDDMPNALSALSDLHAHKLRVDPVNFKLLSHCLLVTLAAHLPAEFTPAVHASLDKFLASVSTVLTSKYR
# T1 sequence (P68871 2-147 partner limits assumed): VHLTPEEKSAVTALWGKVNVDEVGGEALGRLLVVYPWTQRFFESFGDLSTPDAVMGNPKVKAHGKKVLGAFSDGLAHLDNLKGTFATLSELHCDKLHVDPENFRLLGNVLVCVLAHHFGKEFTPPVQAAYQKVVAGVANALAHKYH
compound,measurement,setting,value
O=Cc1ccccc1C(=O)N1CCCC[C@H]1COc1cccc(O)c1C=O [HypoxyStat],"reversal of body weight loss, impaired behavior and neurological lesions in late-stage KO mice",[1],reversed multiple other disease presentations
same,lifespan of late-stage Ndufs4 KO mice,[1]; p < 0.05 Mantel-Cox,significantly extended the lifespan
same,stability of formulation,[2],at least 8 weeks
same,"classical safety parameters (body weight, organ weights, complete blood count, clinical chemistries)",[3],not adversely affected
same,p50,"[4]; human red blood cells incubated 1 h with 10 mM compound, vehicle ~28 mmHg",5.6 mmHg
same,decrease in p50,"[4]; human red blood cells incubated with compound, vs vehicle",~ 82%
same,Hb occupancy,[5]; 200 mg/kg PO 3 times per week,29.3%
same,Hb occupancy,[5]; 600 mg/kg PO 3 times per week,41.4%
